The results in this text go back to patent publication US20210395262A1, “INHIBITORS OF HUMAN IMMUNODEFICIENCY VIRUS REPLICATION” (ViiV HEALTHCARE UK (NO.5) LIMITED, priority 2018, published 2021).

In general, EC50 refers to the concentration at which the effect is half-maximal. Broadly, the CC50 is the concentration giving 50% cytotoxicity.

Read-outs that look alike come from different tables or passages of the source.

For series [1], the system named is recombinant NL4-3 virus. In words: HIV cell culture assay (antiviral activity, luciferase readout in MT-2 cells). It is filed as cell-based. The note with it: Human immunodeficiency virus 1, NL43, MT2. Put shortly: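 MT-2 cells infected for 4-5 days with NL4-3 reference virus carrying Renilla luciferase in place of part of nef, in presence of serial compound dilutions. Luciferase activity read with live-cell substrate. EC50 derived from median effect equation, slope parameter m.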

The nature of series [2]: Compound cytotoxicity, XTT-based colorimetric assay. It is filed as cell-based. The settings on record: human. Put shortly: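 Run under the antiviral-assay protocol but without virus. Viability was read on day 4 and CC50 values were derived from the readout.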
Background: Tetrazolium dyes change colour on reduction, which living cells bring about.

Setting [3] is: uninfected MT2 cells, day 4, XTT, read-out: CC50.

Regarding `O=C(Cn1nc(C(F)F)c2c1C(F)(F)[C@@H]1C[C@H]21)N[C@@H](Cc1cc(F)cc(F)c1)c1nc2cc(N3CCOCC3)ccc2c(=O)n1-c1ccc(Cl)c2c(NS(=O)(=O)C3CC3)nn(CC(F)F)c12` (atropisomer, axis not shown; (P)) [Example 9, N—((S)-1-((3P)-3-(4-chloro-3-(cyclopropanesulfonamido)-1-(2,2-difluoroethyl)-1H-indazol-7-yl)-7-morpholino-4-oxo-3,4-dihydroquinazolin-2-yl)-2-(3,5-difluorophenyl)ethyl)-2-((3bS,4aR)-3-(difluoromethyl)-5,5-difluoro-3b,4,4a,5-tetrahydro-1H-cyclopropa[3,4]cyclopenta[1,2-c]pyrazol-1-yl)acetamide], the EC50 in series [1] is 0.086 nM. The CC50 at 4 days in series [2] (setting [3]) is above 500 nM.

In the case of `CS(=O)(=O)Nc1nn(CC(F)F)c2c(-n3c([C@H](Cc4cc(F)cc(F)c4)NC(=O)Cn4nc(C(F)F)c5c4C(F)(F)[C@@H]4C[C@H]54)nc4cc(N5CCOCC5)ccc4c3=O)ccc(Cl)c12` (atropisomer, axis not shown; (P)) [Example 7, N—((S)-1-((3P)-3-(4-chloro-1-(2,2-difluoroethyl)-3-(methylsulfonamido)-1H-indazol-7-yl)-7-morpholino-4-oxo-3,4-dihydroquinazolin-2-yl)-2-(3,5-difluorophenyl)ethyl)-2-((3bS,4aR)-3-(difluoromethyl)-5,5-difluoro-3b,4,4a,5-tetrahydro-1H-cyclopropa[3,4]cyclopenta[1,2-c]pyrazol-1-yl)acetamide], the EC50 in series [1] stood at 0.085 nM. The CC50 at 4 days in series [2] (setting [3]) is above 500 nM.

Consider `Cn1nc(NS(C)(=O)=O)c2c(Cl)ccc(-n3c([C@H](Cc4cc(F)cc(F)c4)NC(=O)Cn4nc(C(F)F)c5c4C(F)(F)[C@@H]4C[C@H]54)nc4cc(N5C6COCC5COC6)ccc4c3=O)c21` [Example 6, N—((S)-1-(7-(3,7-dioxa-9-azabicyclo[3.3.1]nonan-9-yl)-(3P)-3-(4-chloro-1-methyl-3-(methylsulfonamido)-1H-indazol-7-yl)-4-oxo-3,4-dihydroquinazolin-2-yl)-2-(3,5-difluorophenyl)ethyl)-2-((3bS,4aR)-3-(difluoromethyl)-5,5-difluoro-3b,4,4a,5-tetrahydro-1H-cyclopropa[3,4]cyclopenta[1,2-c]pyrazol-1-yl)acetamide], for which the EC50 in series [1] came out at 0.145 nM. The molecule also returned a CC50 at 4 days in series [2] above 500 nM.

With `C[C@@H]1CN(c2ccc3c(=O)n(-c4ccc(Cl)c5c(NS(C)(=O)=O)nn(CC(F)F)c45)c([C@H](Cc4cc(F)cc(F)c4)NC(=O)Cn4ccc(C5CC5)n4)nc3c2)C[C@H](C)O1` (atropisomer, axis not shown; (P)) [Example 48, N—((S)-1-((3P)-3-(4-chloro-1-(2,2-difluoroethyl)-3-(methylsulfonamido)-1H-indazol-7-yl)-7-((2S,6R)-2,6-dimethylmorpholino)-4-oxo-3,4-dihydroquinazolin-2-yl)-2-(3,5-difluorophenyl)ethyl)-2-(3-cyclopropyl-1H-pyrazol-1-yl)acetamide], the EC50 in series [1] was found to be 0.44 nM. For the same molecule, the CC50 at 4 days in series [2] (setting [3]) is above 500 nM.

As for `C[C@@H]1CN(c2ccc3c(=O)n(-c4ccc(Cl)c5c(NS(=O)(=O)C6CC6)nn(CC(F)F)c45)c([C@H](Cc4cc(F)cc(F)c4)NC(=O)Cn4nc(C(F)F)c5c4C(F)(F)[C@@H]4C[C@H]54)nc3c2)C[C@H](C)O1` (atropisomer, axis not shown; (P)) [Example 10, N—((S)-1-((3P)-3-(4-chloro-3-(cyclopropanesulfonamido)-1-(2,2-difluoroethyl)-1H-indazol-7-yl)-7-((2S,6R)-2,6-dimethylmorpholino)-4-oxo-3,4-dihydroquinazolin-2-yl)-2-(3,5-difluorophenyl)ethyl)-2-((3bS,4aR)-3-(difluoromethyl)-5,5-difluoro-3b,4,4a,5-tetrahydro-1H-cyclopropa[3,4]cyclopenta[1,2-c]pyrazol-1-yl)acetamide], the EC50 in series [1] was determined as 0.072 nM. Besides, the CC50 at 4 days in series [2] (setting [3]) was above 500 nM.

On to `C[C@@H]1CN(c2ccc3c(=O)n(-c4ccc(Cl)c5c(NS(C)(=O)=O)nn(CC(F)F)c45)c([C@H](Cc4cc(F)cc(F)c4)NC(=O)Cc4cn(C5CC5)c5ccccc45)nc3c2)C[C@H](C)O1` [Example 52, N—((S)-1-((3P)-3-(4-chloro-1-(2,2-difluoroethyl)-3-(methylsulfonamido)-1H-indazol-7-yl)-7-((2S,6R)-2,6-dimethylmorpholino)-4-oxo-3,4-dihydroquinazolin-2-yl)-2-(3,5-difluorophenyl)ethyl)-2-(1-cyclopropyl-1H-indol-3-yl)acetamide], for which the 50% effective concentration (EC50) in series [1] was 1.1 nM. The CC50 at 4 days in series [2] (setting [3]) is above 500 nM.

For `Cn1nc(NS(C)(=O)=O)c2c(Cl)ccc(-n3c([C@H](Cc4cc(F)cc(F)c4)NC(=O)Cn4nc(C(F)F)c5c4C(F)(F)[C@@H]4C[C@H]54)nc4cc(N5CCS(=O)(=O)CC5)ccc4c3=O)c21` (atropisomer, axis not shown; (P)) [Example 13, N—((S)-1-((3P)-3-(4-chloro-1-methyl-3-(methylsulfonamido)-1H-indazol-7-yl)-7-(1,1-dioxidothiomorpholino)-4-oxo-3,4-dihydroquinazolin-2-yl)-2-(3,5-difluorophenyl)ethyl)-2-((3bS,4aR)-3-(difluoromethyl)-5,5-difluoro-3b,4,4a,5-tetrahydro-1H-cyclopropa[3,4]cyclopenta[1,2-c]pyrazol-1-yl)acetamide], in series [1], the EC50 came to 0.468 nM. The CC50 at 4 days in series [2] (setting [3]) was above 10000 nM.

Turning to `C[C@@H]1CN(c2ccc3c(=O)n(-c4ccc(Cl)c5c(NS(C)(=O)=O)nn(C)c45)c([C@H](Cc4cc(F)cc(F)c4)NC(=O)Cn4nc(C(F)F)c5c4C(F)(F)[C@@H]4C[C@H]54)nc3c2)C[C@H](C)O1` (atropisomer, axis not shown; (P)) [Example 15, N—((S)-1-((3P)-3-(4-chloro-1-methyl-3-(methylsulfonamido)-1H-indazol-7-yl)-7-((2S,6R)-2,6-dimethylmorpholino)-4-oxo-3,4-dihydroquinazolin-2-yl)-2-(3,5-difluorophenyl)ethyl)-2-((3bS,4aR)-3-(difluoromethyl)-5,5-difluoro-3b,4,4a,5-tetrahydro-1H-cyclopropa[3,4]cyclopenta[1,2-c]pyrazol-1-yl)acetamide], in series [1], the EC50 was found to be 0.035 nM. Further, in series [2] (setting [3]), the CC50 at 4 days is above 10000 nM.

`C[C@@H]1CN(c2ccc3c(=O)n(-c4ccc(Cl)c5c(NS(C)(=O)=O)nn(CC(F)(F)F)c45)c([C@H](Cc4cc(F)cc(F)c4)NC(=O)Cn4nc(C(F)(F)F)c5c4C(F)(F)[C@@H]4C[C@H]54)nc3c2)C[C@H](C)O1` (atropisomer, axis not shown; (P)) [Example 61, N—((S)-1-((3P)-3-(4-chloro-3-(methylsulfonamido)-1-(2,2,2-trifluoroethyl)-1H-indazol-7-yl)-7-((2S,6R)-2,6-dimethylmorpholino)-4-oxo-3,4-dihydroquinazolin-2-yl)-2-(3,5-difluorophenyl)ethyl)-2-((3bS,4aR)-5,5-difluoro-3-(trifluoromethyl)-3b,4,4a,5-tetrahydro-1H-cyclopropa[3,4]cyclopenta[1,2-c]pyrazol-1-yl)acetamide]: the EC50 in series [1] was 0.084 nM. Besides, the CC50 at 4 days in series [2] (setting [3]) is above 500 nM.

Regarding `C[C@@H]1CN(c2ccc3c(=O)n(-c4ccc(Cl)c5c(NS(=O)(=O)C6CC6)nn(CC(F)(F)F)c45)c([C@H](Cc4cc(F)cc(F)c4)NC(=O)Cn4nc(C(F)F)c5c4C(F)(F)[C@@H]4C[C@H]54)nc3c2)C[C@H](C)O1` (atropisomer, axis not shown; (P)) [Example 62, N—((S)-1-((3P)-3-(4-chloro-3-(cyclopropanesulfonamido)-1-(2,2,2-trifluoroethyl)-1H-indazol-7-yl)-7-((2S,6R)-2,6-dimethylmorpholino)-4-oxo-3,4-dihydroquinazolin-2-yl)-2-(3,5-difluorophenyl)ethyl)-2-((3bS,4aR)-3-(difluoromethyl)-5,5-difluoro-3b,4,4a,5-tetrahydro-1H-cyclopropa[3,4]cyclopenta[1,2-c]pyrazol-1-yl)acetamide], the EC50 in series [1] amounted to 0.067 nM. Besides, the CC50 at 4 days in series [2] (setting [3]) was above 500 nM.

Regarding `Cn1nc(NS(C)(=O)=O)c2c(Cl)ccc(-n3c([C@H](Cc4cc(F)cc(F)c4)NC(=O)Cn4nc(C(F)F)c5c4C(F)(F)[C@@H]4C[C@H]54)nc4cc(N5CCC5)ccc4c3=O)c21` (atropisomer, axis not shown; (P)) [Example 18, N—((S)-1-(7-(azetidin-1-yl)-(3P)-3-(4-chloro-1-methyl-3-(methylsulfonamido)-1H-indazol-7-yl)-4-oxo-3,4-dihydroquinazolin-2-yl)-2-(3,5-difluorophenyl)ethyl)-2-((3bS,4aR)-3-(difluoromethyl)-5,5-difluoro-3b,4,4a,5-tetrahydro-1H-cyclopropa[3,4]cyclopenta[1,2-c]pyrazol-1-yl)acetamide], the EC50 in series [1] was 0.066 nM. Also, in series [2] (setting [3]), the CC50 at 4 days was above 1000 nM.

As for `COC1CCCN(c2ccc3c(=O)n(-c4ccc(Cl)c5c(NS(C)(=O)=O)nn(C)c45)c([C@H](Cc4cc(F)cc(F)c4)NC(=O)Cn4nc(C(F)F)c5c4C(F)(F)[C@@H]4C[C@H]54)nc3c2)C1` (stereo partly drawn) [Example 29, N-((1S)-1-((3P)-3-(4-chloro-1-methyl-3-(methylsulfonamido)-1H-indazol-7-yl)-7-(3-methoxypiperidin-1-yl)-4-oxo-3,4-dihydroquinazolin-2-yl)-2-(3,5-difluorophenyl)ethyl)-2-((3bS,4aR)-3-(difluoromethyl)-5,5-difluoro-3b,4,4a,5-tetrahydro-1H-cyclopropa[3,4]cyclopenta[1,2-c]pyrazol-1-yl)acetamide], the EC50 in series [1] came out at 0.052 nM. Further, the CC50 at 4 days in series [2] (setting [3]) is above 500 nM.
